Data: ChEMBL document CHEMBL3632532, “Beyond the affinity for protein kinase C: exploring 2-phenyl-3-hydroxypropyl pivalate analogues as C1 domain-targeting ligands” (Medchemcomm, 2015)

Legend:
[1] = target: T1, Protein kinase C alpha type (Homo sapiens, UniProt P17252); test: Displacement of [3H]PDBu from recombinant human PKCalpha C1 domain expressed in baculovirus infected insect Sf9 cells assessed as residual radiolabeled binding at 100 uM after 10 mins by liquid scintillation counting analysis relative to control
[2] = target: T2, Protein kinase C delta type (Homo sapiens, UniProt Q05655); test: Displacement of [3H]PDBu from recombinant human PKCdelta C1 domain expressed in baculovirus infected insect Sf9 cells assessed as residual radiolabeled binding at 100 uM after 10 mins by liquid scintillation counting analysis relative to control
Target sequence in this assay (Q05655 whole entry, looked up, the tested form may be a part): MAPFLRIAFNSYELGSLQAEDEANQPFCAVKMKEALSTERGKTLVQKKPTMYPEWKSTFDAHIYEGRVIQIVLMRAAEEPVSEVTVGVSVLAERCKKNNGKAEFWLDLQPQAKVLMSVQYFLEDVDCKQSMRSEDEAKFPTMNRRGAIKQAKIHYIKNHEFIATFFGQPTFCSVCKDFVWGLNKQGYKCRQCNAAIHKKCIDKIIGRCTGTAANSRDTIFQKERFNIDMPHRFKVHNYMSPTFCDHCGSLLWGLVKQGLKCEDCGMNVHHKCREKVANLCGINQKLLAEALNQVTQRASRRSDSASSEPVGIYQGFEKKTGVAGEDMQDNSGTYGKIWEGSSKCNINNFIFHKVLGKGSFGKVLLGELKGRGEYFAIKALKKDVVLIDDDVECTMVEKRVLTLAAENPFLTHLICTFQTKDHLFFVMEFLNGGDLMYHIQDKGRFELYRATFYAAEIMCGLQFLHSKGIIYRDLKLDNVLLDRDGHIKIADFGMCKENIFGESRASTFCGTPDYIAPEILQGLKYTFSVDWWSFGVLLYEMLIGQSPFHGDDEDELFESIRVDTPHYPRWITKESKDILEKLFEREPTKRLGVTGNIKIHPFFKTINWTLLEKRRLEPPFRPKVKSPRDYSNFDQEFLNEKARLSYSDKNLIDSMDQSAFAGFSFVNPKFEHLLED

[3] = target: T2, Protein kinase C delta type; test: Displacement of [3H]PDBu from recombinant human PKCdelta C1 domain expressed in baculovirus infected insect Sf9 cells after 10 mins by liquid scintillation counting analysis
[4] = target: T1, Protein kinase C alpha type; test: Displacement of [3H]PDBu from recombinant human PKCalpha C1 domain expressed in baculovirus infected insect Sf9 cells after 10 mins by liquid scintillation counting analysis
[5] = target: T2, Protein kinase C delta type; test: Displacement of [3H]PDBu from recombinant human PKCdelta C1 domain expressed in baculovirus infected insect Sf9 cells at 100 uM after 10 mins by liquid scintillation counting analysis relative to control
Target sequence in this assay (Q05655 whole entry, looked up, the tested form may be a part): as above

[6] = target: T1, Protein kinase C alpha type; test: Displacement of [3H]PDBu from recombinant human PKCalpha C1 domain expressed in baculovirus infected insect Sf9 cells at 100 uM after 10 mins by liquid scintillation counting analysis relative to control

For `CC(C)(C)C(=O)OCC(CO)c1ccc(OCc2ccccc2)cc1` (racemic) [listing 1 of 2 here], the Activity [1] was 41.6% and the Residual [3H]PDBu binding [2] was 29.3%.

In the case of `O=C(CC(CO)c1ccc(OCc2ccccc2)cc1)OCc1ccccc1` (stereo not drawn), the inhibition [3] is reported as “Dose-dependent effect”, the inhibition [4] is reported as “Dose-dependent effect” and the Activity [1] is reported as 73.9%. For the same compound, the Residual [3H]PDBu binding [2] was 61.6%.

`O=C(Cc1ccccc1)OCC(CO)c1ccc(OCc2ccccc2)cc1` (racemic) [listing 1 of 2 here] gave an IC50 [3] of 39.9 µM and an IC50 [4] of 73.9 µM.

`CC(C)(C)C(=O)OCC(CO)c1ccc(OCc2ccccc2)cc1` (single isomer, unassigned; (+)) was tested, and the inhibition [5] was 34.6% and the inhibition [6] was 34.6%.

In the case of `O=C(CC(CO)c1cccc(OCc2ccccc2)c1)OCc1ccccc1` (stereo not drawn), the inhibition [3] is reported as “Dose-dependent effect”, the inhibition [4] is reported as “Dose-dependent effect” and the Activity [1] is reported as 67.4%. The Residual [3H]PDBu binding [2] was 52.5%.

`CCN(CC)C(=O)CC(CO)c1ccc(OCc2ccccc2)cc1` (stereo not drawn) was tested, and the Activity [1] was 100%.

`O=C(Cc1ccccc1)OCC(CO)c1ccc(OCc2ccccc2)cc1` (racemic) [listing 2 of 2 here] was tested, and the inhibition [4] was “Dose-dependent effect”, the Activity [1] was 51.3% and the Residual [3H]PDBu binding [2] was 34.8%.

For `O=C(CC(CO)c1ccc(-c2ccccc2)cc1)N1CCOCC1` (stereo not drawn), the Activity [1] was 86.6%.

`CN(Cc1ccccc1)C(=O)CC(CO)c1cccc(OCc2ccccc2)c1` (stereo not drawn) showed an Activity [1] of 72.4%.

Compound `CN(Cc1ccccc1)C(=O)CC(CO)c1ccc(OCc2ccccc2)cc1` (stereo not drawn) has an Activity [1] of 80.6%.

With `CCN(CC)C(=O)CC(CO)c1ccc(-c2ccccc2)cc1` (stereo not drawn) the Activity [1] was 84.4%.

Compound `O=C(CC(CO)c1ccc(OCc2ccccc2)cc1)N1CCOCC1` (stereo not drawn) has an Activity [1] of 107%.

`O=C(CC(CO)c1cccc(OCc2ccccc2)c1)N1CCOCC1` (stereo not drawn) was tested, and the Activity [1] was 99.7%.

`CN(Cc1ccccc1)C(=O)CC(CO)c1ccc(-c2ccccc2)cc1` (stereo not drawn) showed an Activity [1] of 76.1%.

With `O=C(Cc1ccccc1)OCC(CO)c1ccc(OCc2ccccc2)cc1` (single isomer, unassigned; (-)) the inhibition [5] was 26.3% and the inhibition [6] was 26.3%.

`CCN(CC)C(=O)CC(CO)c1cccc(OCc2ccccc2)c1` (stereo not drawn) showed an Activity [1] of 90%.

`CC(C)(C)C(=O)OCC(CO)c1ccc(OCc2ccccc2)cc1` (single isomer, unassigned) gave an inhibition [5] of 36.3% and an inhibition [6] of 36.3%.

`O=C(Cc1ccccc1)OCC(CO)c1ccc(OCc2ccccc2)cc1` (single isomer, unassigned) gave an inhibition [5] of 27.3% and an inhibition [6] of 27.3%.

Work on `CC(C)(C)C(=O)OCC(CO)c1ccc(OCc2ccccc2)cc1` (racemic) [listing 2 of 2 here] yielded an IC50 [3] of 33.2 µM and an IC50 [4] of 37.5 µM.

For `O=C(CC(CO)c1ccc(-c2ccccc2)cc1)OCc1ccccc1` (stereo not drawn), the inhibition [3] was “Dose-dependent effect”, the inhibition [4] was “Dose-dependent effect” and the Activity [1] was 64.4%. The Residual [3H]PDBu binding [2] was 56.7%.
